The target in this assay is T1, human APJ receptor (Homo sapiens, UniProt P35414).
T1 construct: expressed in transfected cells
T1 sequence (P35414 1-380): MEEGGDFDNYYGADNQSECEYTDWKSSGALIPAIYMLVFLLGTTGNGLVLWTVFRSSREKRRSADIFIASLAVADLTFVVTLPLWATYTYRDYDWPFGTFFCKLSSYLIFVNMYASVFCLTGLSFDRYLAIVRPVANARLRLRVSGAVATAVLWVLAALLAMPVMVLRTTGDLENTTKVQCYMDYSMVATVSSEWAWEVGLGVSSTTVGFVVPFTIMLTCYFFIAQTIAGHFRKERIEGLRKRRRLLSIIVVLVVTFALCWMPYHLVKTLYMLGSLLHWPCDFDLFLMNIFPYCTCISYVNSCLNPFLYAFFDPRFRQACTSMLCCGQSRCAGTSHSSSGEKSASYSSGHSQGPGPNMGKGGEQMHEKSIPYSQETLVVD
As to the kind of experiment: Intracellular cAMP accumulation assay (APJ hcAMP, HTRF). The class given is cell-based. The following applies: HEK293 cells stably expressing human APJ receptor; inhibition of forskolin-mediated cAMP production; read-out: Human APJ cAMP EC50 Potency range. The method, then: Intracellular cAMP Accumulation Assay
HEK293 cells stably expressing human APJ receptor were used to assess the activity of compounds. Cultured cells were detached and resuspended in the cAMP Homogeneous Time-Resolved Fluorescence (HTRF) assay buffer (Cisbio cat; #62AM4PEJ). The assay was performed in 384-well assay plates (Perkin-Elmer; cat #6008289) according to assay protocol provided by the manufacturer. Serial dilutions of a compound together with assay buffer containing […] IBMX and 2 μM forskolin were added to each well containing 5,000 cells and incubated for 30 minutes at room temperature. Subsequently, cAMP D2 reagent was added in the lysis buffer followed by the EuK antibody (Cisbio; cat #62AM4PEJ) and incubated for 60 min. The fluorescence emission ratio was measured using fluorometer. The intracellular cAMP concentrations (compound-stimulated inhibition of forskolin-mediated cAMP production) were calculated by extrapolation from a standard curve using known cAMP concentrations. The EC50 values were obtained by fitting the data to a sigmoidal concentration-response curve with variable slope. The maximal achievable inhibition of forskolin-induced cAMP levels (Ymax) for each compound was expressed as relative percentage of inhibition attained using pyroglutamated apelin-13 ((Pyr1)apelin-13) peptide, which was set to 100%.
The examples disclosed below were tested in the APJ in vitro assays described above and were found having human APJ cyclic AMP (hcAMP) activity. The EC50 value of each compound is presented at the end of the example description.
The biological activity of the exemplified compounds of this invention determined by the assay described above is shown at the end of each example.
Broadly, the EC50 is the concentration that produces a half-maximal response. With `CCCCc1[nH]c(=O)c(S(=O)(=O)c2ccc(-c3cccnc3OC)cc2)c(O)c1-c1c(OC)cccc1OC` [Example 2, 6-butyl-5-(2,6-dimethoxy-phenyl)-4-hydroxy-3-((4-(2-methoxy-pyridin-3-yl)phenyl)sulfonyl) pyridin-2(1H)-one], the concentration giving a half-maximal response (EC50) is 0.01 to 10 nM.

`CCCCc1[nH]c(=O)c(S(=O)(=O)c2ccc(-c3ccncc3C)cc2)c(O)c1-c1c(OC)cccc1OC` [Example 3, 6-butyl-5-(2,6-dimethoxy-phenyl)-4-hydroxy-3-((4-(3-methyl-pyridin-4-yl)phenyl)sulfonyl) pyridin-2(1H)-one]: the EC50 was 0.01 to 10 nM.

In the case of `CCCCc1[nH]c(=O)c(S(=O)(=O)c2ccc(-c3cncc(F)c3)cc2)c(O)c1-c1c(OC)cccc1OC` [Example 4, 6-butyl-5-(2,6-dimethoxy-phenyl)-3-((4-(5-fluoro-pyridin-3-yl)phenyl)sulfonyl)-4-hydroxy-pyridin-2(1H)-one], the EC50 lay within 0.01 to 10 nM.

As for `CCCCc1[nH]c(=O)c(S(=O)(=O)c2ccc(-c3ccc(F)nc3C)cc2)c(O)c1-c1c(OC)cccc1OC` [Example 5, 6-butyl-5-(2,6-dimethoxy-phenyl)-3-((4-(6-fluoro-2-methyl-pyridin-3-yl)phenyl)sulfonyl)-4-hydroxy-pyridin-2(1H)-one], the EC50 was 0.01 to 10 nM.

As to `CCCCc1[nH]c(=O)c(S(=O)(=O)c2ccc(-c3ccc(F)nc3)cc2)c(O)c1-c1c(OC)cccc1OC` [Example 6, 6-butyl-5-(2,6-dimethoxy-phenyl)-3-((4-(6-fluoro-pyridin-3-yl)phenyl)sulfonyl)-4-hydroxy-pyridin-2(1H)-one], the EC50 fell in the range of 0.01 to 10 nM.

Regarding `CCCCc1[nH]c(=O)c(S(=O)(=O)c2ccc(C3CC3)cc2)c(O)c1-c1c(OC)cccc1OC` [Example 7, 6-butyl-3-((4-cyclo-propylphenyl)sulfonyl)-5-(2,6-dimethoxy-phenyl)-4-hydroxy-pyridin-2(1H)-one], the EC50 is 0.01 to 10 nM.

With `CCCCc1[nH]c(=O)c(S(=O)(=O)c2ccc(NC(=O)OC(C)(C)C)cc2)c(O)c1-c1c(OC)cccc1OC` [Example 8, tert-butyl (4-((6-butyl-5-(2,6-dimethoxy-phenyl)-4-hydroxy-2-oxo-1,2-dihydro-pyridin-3-yl)sulfonyl)phenyl) carbamate], the EC50 is 0.01 to 10 nM.

`CCOCc1[nH]c(=O)c(S(=O)(=O)c2ccc(-c3ccc(F)cc3)cc2)c(O)c1-c1c(OC)cccc1OC` [Example 9, 5-(2,6-dimethoxy-phenyl)-6-(ethoxymethyl)-3-((4′-fluoro-[1,1′-biphenyl]-4-yl)sulfonyl)-4-hydroxypyridin-2(1H)-one]: the EC50 is 0.01 to 10 nM.

Regarding `CCCCc1[nH]c(=O)c(S(=O)(=O)c2ccccc2)c(O)c1-c1c(OC)cccc1OC` [Example 10, 6-butyl-5-(2,6-dimethoxy-phenyl)-4-hydroxy-3-(phenyl-sulfonyl) pyridin-2(1H)-one], the EC50 was in the range of 0.01 to 10 nM.

On to `CCOCc1[nH]c(=O)c(S(=O)(=O)c2ccc(C3CC3)cc2)c(O)c1-c1c(OC)cccc1OC` [Example 11, 3-((4-cyclo-propylphenyl)sulfonyl)-5-(2,6-dimethoxy-phenyl)-6-(ethoxymethyl)-4-hydroxy-pyridin-2(1H)-one], for which the EC50 was in the range of 0.01 to 10 nM.

For `CCOCc1[nH]c(=O)c(S(=O)(=O)c2ccc(-c3ccc(F)nc3)cc2)c(O)c1-c1c(OC)cccc1OC` [Example 12, 5-(2,6-dimethoxy-phenyl)-6-(ethoxymethyl)-3-((4-(6-fluoro-pyridin-3-yl)phenyl)sulfonyl)-4-hydroxy-pyridin-2(1H)-one], the EC50 was 0.01 to 10 nM.

With `CCCCc1[nH]c(=O)c(S(=O)(=O)c2ccc(-c3ccc(F)cc3)cc2)c(O)c1-c1c(OC)cccc1OC` [Example 13, 6-butyl-5-(2,6-dimethoxy-phenyl)-3-((4′-fluoro-[1,1′-biphenyl]-4-yl)sulfonyl)-4-hydroxy-pyridin-2(1H)-one], the EC50 is 10 to 100 nM.

As to `CCOCc1[nH]c(=O)c(S(=O)(=O)c2ccc(Br)cc2)c(O)c1-c1c(OC)cccc1OC` [Example 14, 3-((4-bromophenyl)sulfonyl)-5-(2,6-dimethoxy-phenyl)-6-(ethoxymethyl)-4-hydroxy-pyridin-2(1H)-one], the EC50 lay in the range of 10 to 100 nM.

Regarding `CCCCc1[nH]c(=O)c(S(=O)(=O)c2ccccc2Br)c(O)c1-c1c(OC)cccc1OC` [Example 15, 3-((2-bromophenyl)sulfonyl)-6-butyl-5-(2,6-dimethoxy-phenyl)-4-hydroxy-pyridin-2(1H)-one], the EC50 lay within 10 to 100 nM.

On to `COc1cccc(OC)c1-c1c(-c2ccc(F)cc2)[nH]c(=O)c(S(=O)(=O)c2ccc(-c3ccnc(F)c3C)cc2)c1O` [Example 16, 5-(2,6-dimethoxy-phenyl)-3-((4-(2-fluoro-3-methyl-pyridin-4-yl)phenyl)sulfonyl)-6-(4-fluoro-phenyl)-4-hydroxy-pyridin-2(1H)-one], for which the EC50 is 0.01 to 10 nM.

On to `COc1cccc(OC)c1-c1c(-c2ccc(F)cc2)[nH]c(=O)c(S(=O)(=O)c2ccc(-c3ccc(F)nc3C)cc2)c1O` [Example 17, 5-(2,6-dimethoxy-phenyl)-3-((4-(6-fluoro-2-methyl-pyridin-3-yl)phenyl)sulfonyl)-6-(4-fluoro-phenyl)-4-hydroxy-pyridin-2(1H)-one], for which the EC50 is 0.01 to 10 nM.

Regarding `CCCCc1[nH]c(=O)c(S(=O)(=O)c2cccc[n+]2[O-])c(O)c1-c1c(OC)cccc1OC` [Example 18, 6-butyl-5-(2,6-dimethoxy-phenyl)-4-hydroxy-3-((1-hydroxy-1l4-pyridin-2-yl)sulfonyl) pyridin-2(1H)-one], the EC50 lay in the range of 100 to 300 nM.

For the compound `CCCCc1[nH]c(=O)c(S(=O)(=O)c2ccc(-n3cc(Cl)ccc3=O)cc2)c(O)c1-c1c(OC)cccc1OC` [Example 19, 6-Butyl-3-((4-(5-chloro-2-oxopyridin-1 (2H)-yl)phenyl)sulfonyl)-5-(2,6-dimethoxyphenyl)-4-hydroxypyridin-2(1H)-one], the EC50 lay within 0.01 to 10 nM.

`CCCCc1[nH]c(=O)c(S(=O)(=O)c2ccc(-n3cc(C)ccc3=O)cc2)c(O)c1-c1c(OC)cccc1OC` [Example 20, 6-butyl-5-(2,6-dimethoxy-phenyl)-4-hydroxy-3-((4-(5-methyl-2-oxopyridin-1(2H)-yl)phenyl)sulfonyl) pyridin-2(1H)-one]: the EC50 was 0.01 to 10 nM.

Turning to `CCOCc1[nH]c(=O)c(S(=O)(=O)c2ccc(-n3cc(Cl)ccc3=O)cc2)c(O)c1-c1c(OC)cccc1OC` [Example 21, 3-((4-(5-chloro-2-oxopyridin-1(2H)-yl)phenyl)sulfonyl)-5-(2,6-dimethoxy-phenyl)-6-(ethoxymethyl)-4-hydroxy-pyridin-2(1H)-one], the EC50 was 0.01 to 10 nM.

Regarding `CCCCc1[nH]c(=O)c(S(=O)(=O)c2ccc(-n3ccccc3=O)cc2)c(O)c1-c1c(OC)cccc1OC` [Example 22, 6-butyl-5-(2,6-dimethoxy-phenyl)-4-hydroxy-3-((4-(2-oxopyridin-1(2H)-yl)phenyl)sulfonyl) pyridin-2(1H)-one], the EC50 fell in the range of 0.01 to 10 nM.

With `COc1cccc(OC)c1-c1c(-c2ccc(F)cc2)[nH]c(=O)c(S(=O)(=O)c2ccc(-n3cc(Cl)ccc3=O)cc2)c1O` [Example 23, 3-((4-(5-chloro-2-oxopyridin-1(2H)-yl)phenyl)sulfonyl)-5-(2,6-dimethoxy-phenyl)-6-(4-fluorophenyl)-4-hydroxy-pyridin-2(1H)-one], the EC50 lay in the range of 0.01 to 10 nM.

On to `CCOCc1[nH]c(=O)c(S(=O)(=O)c2ccc(-n3cc(C)ccc3=O)cc2)c(O)c1-c1c(OC)cccc1OC` [Example 24, 5-(2,6-dimethoxy-phenyl)-6-(ethoxymethyl)-4-hydroxy-3-((4-(5-methyl-2-oxopyridin-1(2H)-yl)phenyl)sulfonyl) pyridin-2(1H)-one], for which the EC50 lay in the range of 0.01 to 10 nM.

Regarding `CCOCc1[nH]c(=O)c(S(=O)(=O)c2ccc(-n3cc(Cl)cc(Cl)c3=O)cc2)c(O)c1-c1c(OC)cccc1OC` [Example 25, 3-((4-(3,5-dichloro-2-oxopyridin-1(2H)-yl)phenyl)sulfonyl)-5-(2,6-dimethoxy-phenyl)-6-(ethoxymethyl)-4-hydroxy-pyridin-2(1H)-one], the half-maximal effective concentration (EC50) lay in the range of 10 to 100 nM.

For the compound `CCOCc1[nH]c(=O)c(S(=O)(=O)c2ccc(-n3ccccc3=O)cc2)c(O)c1-c1c(OC)cccc1OC` [Example 26, 5-(2,6-dimethoxy-phenyl)-6-(ethoxymethyl)-4-hydroxy-3-((4-(2-oxopyridin-1(2H)-yl)phenyl)sulfonyl) pyridin-2(1H)-one], the EC50 lay within 0.01 to 10 nM.

In the case of `CCCCc1[nH]c(=O)c(S(=O)(=O)c2ccc(N)cc2)c(O)c1-c1c(OC)cccc1OC` [Example 27, 3-((4-aminophenyl)sulfonyl)-6-butyl-5-(2,6-dimethoxyphenyl)-4-hydroxypyridin-2(1H)-one], the EC50 lay in the range of 0.01 to 10 nM.

The values above are taken from US10889565B2, “4-hydroxy-3-sulfonylpyridin-2(1H)-ones as APJ receptor agonists” (BRISTOL-MYERS SQUIBB COMPANY, priority 2016, dated 2021).
